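A five-concentration, 48-hour dose response in 96-well plates underlies each endpoint, interpolated linearly between surrounding concentrations. At the GI50, growth is halved. At the TGI there is no net growth.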
Assays:
Test in all cases: NCI-60 cell line screen, 48 h
[1] = tested on: DU-145 prostate
[2] = tested on: MDA-N
[3] = tested on: KM12 colon
[4] = tested on: MDA-MB-231 breast
[5] = tested on: CCRF-CEM leukemia
[6] = tested on: LOX IMVI melanoma
[7] = tested on: T-47D breast
[8] = tested on: IGROV1 ovarian
[9] = tested on: UO-31 renal
[10] = tested on: M14 melanoma
[11] = tested on: A498 renal

Row | Compound | TGI [1] [µM] | TGI [2] [µM] | TGI [3] [µM] | TGI [4] [µM] | TGI [5] [µM] | TGI [6] [µM] | TGI [7] [µM] | TGI [8] [µM] | TGI [9] [µM] | TGI [10] [µM] | TGI [11] [µM] | GI50 [1] [µM] | GI50 [3] [µM] | GI50 [4] [µM] | GI50 [5] [µM] | GI50 [11] [µM] | GI50 [7] [µM] | GI50 [9] [µM]
1 | NS(=O)(=O)c1ccc(NNC(=O)c2cccc3c(=O)c4ccccc4[nH]c23)cc1 | > 100 | > 100 | > 100 | > 100 | > 100 | 89 | > 100 | > 100 | > 100 | > 100 |  |  |  |  |  |  |  | 
2 | NNC(N)=Nc1cccc2ccccc12 | > 100 |  | > 100 | > 100 | > 100 |  | > 100 | > 100 | > 100 | > 100 | > 100 |  |  |  |  |  |  | 
3 | ON=C1CCCCC(=NO)CCCC1 | > 100 | > 100 | > 100 | > 100 |  | > 100 | > 100 |  | > 100 |  | > 100 |  |  |  |  |  |  | 
4 | CC(C)(C)OC(=O)N1C(C2=COc3ccccc3O2)=COc2ccccc21 | 78.2 | > 100 | > 100 | 69.6 |  | 37.3 | 50.4 | > 100 | > 100 | > 100 | 40.2 |  |  |  |  |  |  | 
5 | O=C1C(NS(=O)(=O)c2ccccc2)=C(n2cnc3ccccc32)C(=O)c2ccccc21 | > 100 | > 100 | > 100 | > 100 | > 100 | > 100 |  | > 100 | > 100 | > 100 |  |  |  |  |  |  |  | 
6 | Nn1c(CNc2ccc(-c3nnc(Nc4ccc(Cl)cc4)n3N)cc2)nnc1Nc1ccc(Cl)cc1 | > 100 | > 100 | > 100 | > 100 |  |  |  | > 100 | > 100 | > 100 | > 100 |  |  |  |  |  |  | 
7 | Oc1c(C(O)(c2ccccc2)c2ccc3ccccc3c2O)ccc2ccccc12 | 34.6 | 28.5 | 25.4 | 33.6 |  | 31.3 | 32.5 | 24.7 | 24.7 | 31 | 30.6 |  |  |  |  |  |  | 
8 | Clc1cc2nc(C3CCCO3)[nH]c2cc1Cl (stereo unspecified) |  | 58 | > 100 | > 100 | > 100 | > 100 | > 100 | > 100 | 53.9 | > 100 |  |  |  |  |  |  |  | 
9 | CCN(CC)CCN1C(=O)c2cccc3c(-c4ccc5c(c4)ncn5C4CCCCC4)ccc(c23)C1=O | 3.2 |  | 3.2 | 3.19 | 11.6 |  | 6.22 |  | 2.28 |  | 3.22 | 1.59 | 1.52 | 1.63 | 1.43 | 1.65 | 1.65 | 0.583
10 | CC(/C=C/c1ncccc1OCCCCCC(=O)O)=N\NC1=NCCN1 |  |  | > 100 |  | > 100 | > 100 |  | > 100 | > 100 | > 100 |  |  |  |  |  |  |  | 
11 | CCCCCCc1nn2c(-c3ccc(C)cc3)nnc2s1 | > 100 | > 100 | > 100 | > 100 |  |  | > 100 |  | > 100 | > 100 | > 100 |  |  |  |  |  |  | 
12 | NS(=O)(=O)c1nnc(NC(=O)CCC(=O)O)s1 | > 100 | > 100 | > 100 | > 100 |  | > 100 | > 100 |  | > 100 | > 100 | > 100 |  |  |  |  |  |  | 
13 | c1ccc(Cc2cccc3cc(-c4ccc(-c5ccccc5)cc4)[nH]c23)cc1 | > 100 | > 100 | > 100 | > 100 | > 100 | > 100 | > 100 | > 100 | > 100 | > 100 |  |  |  |  |  |  |  | 
14 | COc1cc(N=C(N)N=C(N)N)c2ncccc2c1 | > 100 | > 100 | > 100 | > 100 |  | > 100 | > 100 | > 100 | > 100 | > 100 | > 100 |  |  |  |  |  |  | 
15 | CN(C)c1nc(N(C)C)nc(N(C)CN(C)c2ccccc2)n1 |  |  | > 100 |  | > 100 | > 100 |  | > 100 | > 100 |  |  |  |  |  |  |  |  | 
16 | CC(C)OP(=O)(OC(C)C)C(C(F)(F)F)C(F)(F)F | > 100 | > 100 | > 100 |  | > 100 | > 100 | > 100 | > 100 | > 100 | > 100 |  |  |  |  |  |  |  | 
17 | O=C(O)CC(NC(=O)C(F)(F)F)C(=O)NC1Cc2ccccc2OC1=O (stereo unspecified) | > 100 | > 100 | > 100 |  |  |  |  | > 100 | > 100 | > 100 |  |  |  |  |  |  |  | 
18 | Cn1c(-c2ccccc2)cc(-c2ccc3c(c2)OCO3)c1-c1cccs1 | > 100 | > 100 | > 100 |  | > 100 | > 100 | > 100 | > 100 | > 100 | > 100 | > 100 |  |  |  |  |  |  | 
19 | O=C(Nc1ccc(Cl)cc1)c1cc(S(=O)(=O)Nc2n[nH]c(=O)[nH]2)c(SSc2cc(Cl)c(C(=O)Nc3ccc(Cl)cc3)cc2S(=O)(=O)Nc2n[nH]c(=O)[nH]2)cc1Cl |  | > 100 | > 100 | > 100 | > 100 | > 100 |  | > 100 | > 100 | > 100 | > 100 |  |  |  |  |  |  | 
20 | CC1=CC(c2ccccc2)OP1(=O)c1ccccc1 (stereo unspecified) | > 100 | > 100 | > 100 |  |  | > 100 | > 100 | > 100 |  | > 100 | > 100 |  |  |  |  |  |  | 
21 | Cc1cccc2c1Oc1cc(Cl)ccc1C2NC(=O)CCN1CCCCC1 (stereo unspecified) |  | 33.1 | 30.8 | 39 | 32.4 | 30.2 | 29.8 |  | 29.2 | 34 |  |  |  |  |  |  |  | 
22 | COCCO |  |  | > 100 |  |  | > 100 |  | > 100 | > 100 |  | > 100 |  |  |  |  |  |  | 
23 | C=CCn1c2ccccc2c2c(C)c3cnccc3c(C)c21 |  |  | 83.9 |  | 24.5 | 60 |  | 95.3 | 32.8 |  | 49.8 |  |  |  |  |  |  | 
24 | C=C1c2nc3ccccc3n2C=C(c2ccc(Cl)cc2)N1c1ccc(OCCN2CCOCC2)cc1 | > 100 | > 100 | > 100 | > 100 |  | > 100 | > 100 | > 100 | > 100 | 58.8 | > 100 |  |  |  |  |  |  | 
